Assay [1] has as its system regulatory T lymphocytes (Treg). In words: Regulatory T cells (Treg) by flow cytometer in allogenic reaction. Particulars: control not treated 7.27%. In kind it is cell-based, mouse. As for the experimental part:
For the confirmation of the effect of the daurinol compound on the inhibition of T cell proliferation and the expression amount of IL-17, the CD4+ T cells (2×10^5 cells) of a normal recipient (Balb/c, responder), and the T cell-removed splenocytes (2×10^5 cells) derived from a recipient (homogenic) or the splenocytes (2×10^5 cells) derived from a donor (C57BL/6, stimulator, allogenic) exposed to irradiation were added to each well of a 96-well round bottom plate, mixed, and cultured in vitro. In particular, the T cell proliferation and the secretion of IL-17 when an allogenic reaction was untreated with daurinol or treated with daurinol at 0.5 μM, 2 μM, 10 μM, and 20 μM, respectively, were observed.
In this regard, for the confirmation of the effect of the daurinol compound according to the present invention on the activity of regulatory T lymphocytes (Treg), the present inventors analyzed the T cells isolated in Example <4-2> by a flow cytometer. That is, the T cells isolated in Example <4-2> were collected, washed with the FACs buffer, and reacted at 4° C. for the blocking of nonspecific binding for 5 minutes, and washed with the FACs buffer. […] Upon staining of the cells, the cells were washed with buffer and analyzed using the fluorescent-activated cell sorter (FACs).
In general terms: In flow cytometry, cells or beads pass a laser one at a time.

Assay [2] relates to bone marrow macrophages (BMM). Briefly: Inhibitory effect on the differentiation of osteoclasts (TRAP+ multinucleate cells). In kind it is cell-based, mouse. Particulars: RANKL 50 ng/mL, M-CSF 30 ng/mL, 4 days. An excerpt: ICR mice (6 to 9 week-old male) were subjected to cervical dislocation and disinfected with 70% ethanol. The skin in the tibia area was cut off and the muscles attached thereto were detached. The distal center of tibia was cut off and tibia was ablated by dislocating patella. Both ends of the bone were slightly cut off and a 25G injection needle was indwelled therein on one end and α-MEM was flowed thereon and bone marrow cells were thereby collected into a test tube. After centrifugation, the resultant was suspended in α-MEM and red blood cells were removed by adding two volumes of Gey's solution. After centrifugation, the resultant was resuspended in α-MEM including 10% FBS and cultured to be used.
The cultured bone marrow cells were cultured overnight with macrophage colony stimulating factor (“M-CSF”, hereinafter) (10 ng/mL), and the suspension cells were cultured further with M-CSF (30 ng/mL) for 3 days, and thereby bone marrow macrophages (“BMM”) were formed. The thus-formed BMM was collected and cultured in 1×10^5 cells/well in the presence of receptor activator of NF-κB ligand (RANKL) (50 ng/mL), which is an osteoclast differentiation factor, and M-CSF (30 ng/mL) for 4 days. […] The resultant was observed under a microscope and TRAP+ cells having three or more nuclei were determined as multinucleate osteoclasts.

In assay [3] the test system is animal model with collagen induced arthritis (CIA). Briefly: Expression of inflammatory cytokines in joints of CIA animals (tissue staining). Particulars: injected intravenously, three weeks after. It is filed as in vivo, mouse.
The next assay relates to VEGF. In words: VEGF expression in the intestinal tissues of IBD mouse model. It is filed as in vivo. Particulars: animal (mouse) model with inflammatory bowel disease. The source says: For the confirmation of the effect of the daurinol compound of the present invention on the treatment of inflammatory bowel disease, the present inventors first constructed an animal model with induced inflammatory bowel disease. For the experimental model, C57BL/6(H-2kb) mice were used. For the construction of an animal model with induced inflammatory bowel disease, the mice were fed with 3.5% dextran sulfate sodium (DSS) and water for a week, thereby preparing an animal model with induced inflammatory bowel disease.
The present inventors divided the experimental animals into a normal control group, a group of an animal model with induced inflammatory bowel disease, and a group of an animal model with induced inflammatory bowel disease treated with daurinol or a TNF-α inhibitor, and the group treated with daurinol was administered orally and intrarectally with daurinol (20 mg/kg) from the 4th day after the induction with the disease.

The subject of a further assay is phospho m-TOR. Briefly: Western blot of phospho m-TOR in CD4+T cells. In kind it is cell-based. Particulars: CD4+T cells of normal mouse, daurinol 5 μM, anti-CD3 0.5 μg/mL, 3 days. As for the experimental part: For the observation of changes in intracellular cell signaling factors treated with daurinol, a western blot analysis was performed. For this purpose, CD4+T cells were isolated from a normal mouse, treated with daurinol (5 μM) in a condition already treated with anti-CD3 antibodies (0.5 μg/mL), cultured for 3 days, and the cells were dissolved and proteins were extracted therefrom. Then, the extracted proteins were subjected to SDS-PAGE electrophoresis, and the proteins were electrically transferred onto a nitrocellulose membrane, subjected to a blocking reaction with 5% skim milk for 1 hour, reacted by attaching primary antibodies to STAT3, STAT3p705, STAT3p727, and phospho m-TOR thereto, reacting again by attaching secondary antibodies to the same, and sensitized onto a Kodak X-ray using enhanced chemilunimoecence (ECL), and thereby the protein expression levels of the genes were analyzed.

The subject of another assay is splenocyte cell line. Briefly: TNF-α secretion of LPS treated splenocyte cell line (sandwich ELISA). In kind it is cell-based. Particulars: 20 μM daurinol; LPS 100 ng/mL. The protocol:
For this purpose, a splenocyte cell line was treated with anti-CD3 antibodies (0.5 μg/mL) to induce the secretion of IL-17, or treated with LPS (100 ng/mL) to induce the secretion of TNF-α. Then, the splenocyte cell line was treated with daurinol at concentrations of 0.5 μM, 2.5 μM, and 20 μM, and the supernatants were combined and the amount of IL-17 and TNF-α were examined by sandwich ELISA assay. The resultant was reacted in a 96-well plate with monoclonal anti-IL-17 or anti-TNF-α (2 μg/mL) at 4° C. overnight, and upon reaction, the non-specific binding was blocked using a blocking solution (1% BSA/PBST). IL-17 recombinant or TNF-α in a half amount was continuously diluted and used as standards, and the supernatant of cell culture was reacted at room temperature for 2 hours. Then, the biotinylated anti-IL-17 was reacted at room temperature for 2 hours, washed 4 times, and added with ExtraAvidin-alkaline phosphatase conjugate after dilution, and reacted at room temperature for 2 hours. Subsequently, PNPP/DEA solution was added thereto to fix color and absorbance was measured at 405 nm.

Assay [4] deals with animal model with collagen induced arthritis (CIA). Briefly: Histological examination of joints of CIA animals. In kind it is in vivo, mouse. Particulars: injected intravenously, three weeks after, H&E, Toluidine blue, Safranin O.
In assay [5] the test system is animal model with a collagen induced arthritis (CIA). Briefly: Evaluation of arthritis index in animal model with collagen induced arthritis. Particulars: CIA DBA/1J mice, daurinol 20 mg/kg intravenously, total of 9 times, observed until 7th week. In kind it is in vivo, mouse.

Bounds are passed on as bounds.

In assay [1] (daurinol 1 μM), `COc1cc2c(-c3ccc4c(c3)OCO4)c3c(cc2cc1O)COC3=O` [daurinol] registered a Treg cells of 9.18%. In assay [1] (daurinol 5 μM), this compound yielded a Treg cells of 16.6%. The “differentiation of osteoclasts reduced by (number of TRAP+ multinucleate cells)” value in assay [2] (daurinol 2 μM) is reported as at least 60%. Besides, in assay [2] (daurinol 10 μM), the “differentiation of osteoclasts (number of TRAP+ multinucleate cells)” value was “no differentiation of osteoclasts was observed”. For the same compound, in assay [3], the “expression level of IL-1beta in joints” value is “significantly reduced”, the “expression level of IL-6 in joints” value is on record as “significantly reduced”, the “expression level of IL-17 in joints” value is recorded as “significantly reduced” and the “expression level of TNF-α in joints” value is reported as “significantly reduced”. In addition, the “VEGF expression in the intestinal tissues” value in the assay with VEGF is “significantly inhibited the VEGF expression”. In the assay on phospho m-TOR, the “expression of phospho m-TOR” value was “significant decrease”. For the same compound, the “secretion of TNF-α decreased by” value in the assay with splenocyte cell line was “about 40%”. Also, the “degree of destruction of joints and cartilage” value in assay [4] was “not exhibited to be severe”. Further, the arthritis index entry in assay [5] is on record as “almost no increase in arthritis index”.

The record behind these values is patent publication US9526717B2, “Composition for treating immune diseases containing daurinol compound as active ingredient” (THE CATHOLIC UNIVERSITY OF KOREA INDUSTRY-ACADEMIC …, priority 2013, dated 2016).
